US9290537B2, “Method for cross-linking peptides” (UNIVERSITEIT GENT, priority 2010, dated 2016)

Experiments:
[1] = molecular target: T1, streptavidin (Streptomyces avidinii, UniProt P22629); settings: same binding site as the StrepTagII; cited from earlier work
[2] = molecular target: T2, Tyr384Phe-Tyr306Ala variant of the pyrrolysyl-tRNA synthetase of M. mazei (Methanosarcina mazei, UniProt Q8PWY1, Y306A/Y384F); experiment: Incorporation of furan amino acid in Yellow Fluorescent Protein in E. coli, mutated synthetase; type: cell-based; settings: for incorporation in YFP by the mutated pyrrolysine tRNA-synthetase: 0, 2, 5 and 10 mM in T7 Express E. coli cultures, YFP fluorescence
T2 construct: expressed in transfected cells
T2 sequence (Q8PWY1 whole entry Y306A/Y384F): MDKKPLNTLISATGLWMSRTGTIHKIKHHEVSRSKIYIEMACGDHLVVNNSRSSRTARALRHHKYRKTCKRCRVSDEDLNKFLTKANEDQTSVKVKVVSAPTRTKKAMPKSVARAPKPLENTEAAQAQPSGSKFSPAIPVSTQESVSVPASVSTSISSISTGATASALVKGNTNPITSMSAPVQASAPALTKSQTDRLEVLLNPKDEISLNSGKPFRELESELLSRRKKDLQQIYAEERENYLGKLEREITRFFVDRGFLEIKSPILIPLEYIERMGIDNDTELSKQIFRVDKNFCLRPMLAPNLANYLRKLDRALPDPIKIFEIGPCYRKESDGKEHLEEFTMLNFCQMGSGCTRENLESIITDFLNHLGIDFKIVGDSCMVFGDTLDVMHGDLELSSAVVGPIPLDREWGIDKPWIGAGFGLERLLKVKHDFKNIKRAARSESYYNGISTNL
Description: (§1) The incorporation of unnatural furan amino acids by the pyrrolysyl-tRNA synthetase and its tRNA-CUA in Yellow Fluorescent Protein (YFP) can be easily evaluated by monitoring its fluorescence with confocal microscopy. Without incorporation of the furan amino acid at the amber codon position a truncated non-fluorescent protein was obtained, therefore the obtained fluorescence intensity paralleled the incorporation efficiency. The incorporation of the furan amino acids was tested with the tRNA-CUA of Methanosarcina mazei (M. mazei) and with the wild type pyrrolysyl-tRNA synthetase of M. mazei and the Tyr384Phe-Tyr306Ala variant of the pyrrolysyl-tRNA synthetase of M. mazei (Yanagisawa et al., Chemistry & Biology, 2008, 15, 1187-1197).
(§2) The furan amino acid of Formula (XId) or the furan amino acid of Formula (XIc) was added in a concentration of 0, 2, 5 and 10 mM to 5 ml cell cultures of T7 Express Competent E. coli (from New England BioLabs) transformed with a pET-Duet-1 plasmid (Novagen) containing the genes for the pyrrolysine tRNA-synthetase, 3 copies of the tRNA-CUA and the mutated YFP, in LB medium with the appropriate antibiotic.

[3] = molecular target: T3, wild type pyrrolysyl-tRNA synthetase of M. mazei (Methanosarcina mazei, UniProt Q8PWY1); experiment: Incorporation of furan amino acid in Yellow Fluorescent Protein in E. coli, wild type synthetase; type: cell-based; settings: 0, 2, 5 and 10 mM in T7 Express E. coli cultures; YFP fluorescence
T3 construct: expressed in transfected cells
T3 sequence (Q8PWY1 whole entry): as the sequence (Q8PWY1 whole entry Y306A/Y384F) above, with A306Y, F384Y counted along it
Description: as §1, §2

[4] = molecular target: T4, wild type pyrrolysyl-tRNA synthetase and tRNA-CUA of M. mazei (Methanosarcina mazei, UniProt Q8PWY1); experiment: Incorporation of furan amino acid in thioredoxinA (TrxA), LCMS and trypsin digest; type: cell-based; settings: 5 mM in 1 l cell culture; trypsin digest and peptide analysis
T4 construct: expressed in transfected cells
T4 sequence (Q8PWY1 whole entry): as the sequence (Q8PWY1 whole entry Y306A/Y384F) above, with A306Y, F384Y counted along it
Description: In addition to YFP, another protein, thioredoxinA (TrxA), was chosen for providing additional proof of incorporation of a furan amino acid in a protein, through mass characterization after purification.
Experiments were performed similar as in Example 12 with wild type pyrrolysyl-tRNA synthetase and tRNA-CUA of M. mazei, with the mutated TrxA and with the furan amino acid of Formula (XIc) in a concentration of 5 mM in a 1 l cell culture. This yielded 170 μg of protein after purification over a Strep column. Accurate mass determination with full protein LCMS analysis (Orbitrap, Thermo Scientific) found a mass of 13039.7 Dalton (the calculated average mass of the furan-modified oxidized thioredoxinA without the starting methionine is 13039.95 Dalton), proving the incorporation of the furan amino acid in the protein and its stability.

[5] = molecular target: T1, streptavidin; experiment: Cross-linking free furan-StrepTagII peptides with streptavidin (furan-oxidation, NBS, MALDI-TOF); type: binding; settings: for peptide cross-linking with streptavidin: ten equivalents peptide, 60 min 37° C., one equivalent NBS per peptide, 2 hours 10° C., NaCNBH3
Source text: In order to show the cross-link between peptides, an in vitro model system based on the interaction between the StrepTagII and streptavidin was used. The first available Strep-Tag (AWRHPQFGG; SEQ ID NO: 19) able to bind streptavidin could only be attached to the C-terminus of a protein. By changing the sequence of the Strep-Tag, a StrepTagII was developed that can be both N-terminally and C-terminally modified without losing its affinity for streptavidin. Because the intermolecular interactions between the StrepTagII and streptavidin are well characterized, StrepTagII-streptavidin is an excellent model for testing cross-linking.
The free N-terminal and C-terminal furan-StrepTagII peptides 5.2 and 5.3, obtained as described in Example 1, were used to test cross-linking with streptavidin using the furan-oxidation method.
Ten equivalents of the furan-peptides 5.2 or 5.3 were mixed with streptavidin and incubated during 60 min at 37° C. One equivalent of NBS per equivalent of peptide was added as an activation signal and the reaction mixture was incubated during 2 hours at 10° C. with shaking. […] The cross-link between the N-terminal furan-StrepTagII peptide 5.2 and streptavidin was less explicit than the cross-link between the C-terminal furan-StrepTagII peptide 5.3 and streptavidin. This is however not unexpected since the N-terminus of the furan-StrepTagII peptide 5.2 is located outside of its binding site with streptavidin.

[6] = molecular target: T1, streptavidin; experiment: Specific inhibition of the cross-link of free furan-StrepTagII peptides with streptavidin by biotin; type: binding; settings: ten equivalents peptide, streptavidin and biotin, 60 min 37° C.; one equivalent NBS, 2 hours 10° C.
Description: In order to test the specificity of the StrepTagII-streptavidin cross-link, the experiment of Example 5 was repeated in the presence of biotin. As mentioned before, biotin binds streptavidin with high affinity and on the same binding site as the StrepTagII and can therefore act as a specific inhibitor of the cross-link.
Ten equivalents of the furan-StrepTagII peptides 5.2 or 5.3, obtained as described in Example 1, were mixed with streptavidin and biotin and incubated during 60 min at 37° C. One equivalent of NBS per equivalent of peptide was added and the reaction was performed during 2 hours at 10° C. with shaking.

T1 sequence (P22629 25-183, species assumed): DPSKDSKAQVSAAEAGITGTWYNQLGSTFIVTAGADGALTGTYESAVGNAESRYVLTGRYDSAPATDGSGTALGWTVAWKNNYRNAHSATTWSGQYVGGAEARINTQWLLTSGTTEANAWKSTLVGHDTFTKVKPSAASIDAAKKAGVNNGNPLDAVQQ

| Compound | incorporation in YFP by the mutated pyrrolysine tRNA-synthetase [2] | incorporation in YFP by the wild type synthetase [3] | peptide cross-linking with streptavidin [5] | also measured |
| --- | --- | --- | --- | --- |
| O=C(O)CCCC[C@@H]1SC[C@@H]2NC(=O)N[C@@H]21 [biotin] |  |  |  | affinity for streptavidin relative to StrepTagII [1]: much higher affinity |
| NC(CCCCNC(=O)c1ccco1)C(=O)O (centres unmarked) [furan amino acid of Formula (XIc)] | incorporated both | incorporated in YFP by the wild type synthetase in good yield |  | incorporation in YFP by the mutated synthetase, comparison ([2]; compared with Formula (XId) and with wild type synthetase): better than the incorporation of the furan amino acid of Formula (XId), but in lower yield than with the wild type synthetase; incorporation in TrxA [4]: incorporation of the furan amino acid on the correct position of TrxA |
| NC(CCCCNC(=O)NCc1ccco1)C(=O)O (centres unmarked) [furan amino acid of Formula (XId)] | incorporated both | did not incorporate |  |  |
| peptide 5.2: N-terminal furan-StrepTagII peptide with N-terminal (2-furyl)-alanine capped with 2-naphtoic acid (FIG. 8, SEQ ID NO 2) (AWSHPQFEK; N-terminal furylalanine capped with 2-naphthoic acid) |  |  | cross-linking was observed | cross-link with streptavidin compared with peptide 5.3 ([5]; same conditions as E1): less explicit |
| peptide 5.3: C-terminal furan-StrepTagII peptide with C-terminal (2-furyl)-alanine, N-terminally capped with 2-naphtoic acid (FIG. 9, SEQ ID NO 3) (WSHPQFEKA; N-terminal 2-naphthoyl cap; C-terminal 2-furylalanine) |  |  | cross-linking was observed | cross-link with streptavidin in the presence of biotin [6]: no cross-link |
